Two compounds from patent publication US20200179392A1, “Idelalisib for Treating Proliferative Vitreoretinopathy and Abnormal Intraocular Neovascularization” (priority 2016, published 2020) can be followed below.

In this experiment the test system is PDGFRβ/PI3Kδ/Akt. The experiment can be described thus: Western blot of vitreous-induced Akt activation restored by mutant PDGFRβ (βΔx) in PDGFRβ-silent RPEM cells. It is filed as cell-based, human. To be noted: PDGFRβ-silent RPEM cells expressing βΔx; NAC 10 mM, SU6656 1 μM. As to the method:
2B. Serum-deprived RPEM cells as defined were treated with RV or PDGF-B for 30 minutes and their lysates were analyzed with indicated antibodies. This is a representative of three independent experiments. βΔx: a truncated PDGFRβ without the PDGF-binding domain. NAC: N-acetyl-cysteine (10 mM), a scavenger of reactive oxygen species (ROS), SU: SU6656 (1 μM), a specific inhibitor of Src family kinases (SFKs).
To make the retrovirus, the pLXSHD-PDGFRβΔx construct was transfected into 293GPG cells with reagent (Lipofectamine 2000; Invitrogen). Virus containing medium was collected for 5 days and then was concentrated (25,000g, 90 minutes, 4° C.). RPEM cells deficient for PDGFRβ were infected by incubation with the concentrated retrovirus in DMEM supplemented with 10% FBS and 8 μg/mL polybrene (hexadimethrine bromide; Sigma) for 24 hours. Successfully infected cells were selected in histidine-free DMEM supplemented with 2 mM L-histidinol dihydrochoride (Sigma, St. Louis, Mo.). Resultant cell lines were termed RPEMPAx; the level of the truncated PDGFRPAx was determined by Western blot analysis with an antiPDGFRβ antibody that recognizes the receptor's intracellular domain.
Cells grown to 90% confluence in wells of 24-well plates were serum starved for 24 hours, and then treated with appropriated agents. […] Signal intensity was determined by densitometry using NIH imageJ software^24, 44, 50.
(In general: In western blotting, separated proteins are transferred to a membrane and probed.)

As for `CC(=O)N[C@@H](CS)C(=O)O` [N-acetyl-cysteine], the “effect on restoration of vitreous-induced activation of Akt by mutant PDGFRβ” value is on record as “prevented”. As for `CN(C)S(=O)(=O)c1ccc2c(c1)/C(=C/c1cc3c([nH]1)CCCC3)C(=O)N2` [SU6656], the entry is “prevented”.
